Source: US8703698B2, “Compositions and methods for treating atherosclerosis” (The University of Chicago, priority 2003, dated 2014)

What was measured:
[1] = tested on: [3H]-cholesterol-loaded J774 macrophages; assay: In vivo cholesterol efflux to plasma in mice injected with [3H]-cholesterol-loaded J774 macrophages; conditions: for [3H]-cholesterol efflux as plasma radioactivity (dpm) (FIG. 1): intravenous liposomes containing 0.5 μM peptide, 24 hours after macrophages
Experimental: In these experiments, in vivo cholesterol export was determined in mice injected with J774 macrophages cholesterol-loaded with RBC membranes and [^3H]-cholesterol. Two hundred thousand macrophages in 100:1 PBS were injected into each mouse through the tail vein. At various time points thereafter, approximately 25:1 of blood were collected from the tail vein of each animal into heparinized capillary tubes. The tubes were then centrifuged for 5 minutes in an Adams Autocrit Centrifuge to separate red blood cells from plasma. Cholesterol efflux was determined by measuring the appearance of [^3H]-cholesterol in plasma by scintillation spectrometry. To study whether export of cholesterol from J774 cells to plasma was influenced by non-liposome formulated D-27mer peptide (SEQ ID NO:10), 24 hours after injection of cholesterol-loaded J774 macrophages into mice, the same animals received, by intravenous injection, 30 μg, 60 μg, 150 μg, 225 μg, 300 μg or 600 μg of D-27mer. All these amounts of D-peptides were dissolved in 100:l of phosphate buffered saline and injected through the tail vein of each animal.
Additional in vivo studies have also been conducted wherein mice were first injected intravenously with [^3H]cholesterol-laden macrophages and then injected 24 hours later with liposomes containing 0.5 μM of synthetic peptides corresponding to amino acid residues 1-20, 21-50, 51-80 or 74-103 of murine SAA2.1. Results from this study are depicted in FIG. 1. At time points indicated in the graph of FIG. 1, approximately 25 μl of blood were collected from the tail vein of each animal. The blood samples were centrifuged to separate the red blood cells from the plasma and the [^3H]-cholesterol in plasma was determined by scintillation counting. Results are mean±SEM of four determinations.
To determine cholesterol export in vivo, J774 macrophages were cholesterol-loaded with red blood cell membranes and [^3H]-cholesterol as described above. Cells were washed four times with PBS/BSA and then detached from the culture dishes. Five million cells in 200 μl DMEM were injected into control mice or inflamed mice through the tail vein. At various time points, approximately 25 μl of blood were collected from the tail vein of each animal into heparinized capillary tubes and then centrifuged for 5 minutes in an Adams Autocrit Centrifuge to separate red blood cells from plasma. Cholesterol efflux was determined by measuring the appearance of [^3H]-cholesterol in plasma by scintillation spectrometry.
J774 cells cultured in 6-well plates were enriched with cholesterol by incubating with red blood cell (RBC) membrane fragments (175:g as cholesterol) that had been previously labeled with 0.5:Ci/ml [^3H]-cholesterol at 37° C. for 24 hours in 0.2% bovine serum albumin (BSA). After loading with the labelled RBC membrane for 6 hours, cells were then washed with phosphate-buffered saline/BSA (PBS/BSA) three times followed by an 18 hour equilibration period during which monolayers were exposed to DMEM/BSA. To determine cholesterol export in vivo, J774 macrophages were cholesterol-loaded with RBC membranes and [^3H]-cholesterol as described previously above. Cells were washed four times with PBS/BSA and then detached from the culture dishes. Two hundred thousand cells in 100:l PBS were injected into mice through the tail vein. At various time points thereafter, approximately 25:l of blood were collected from the tail vein of each animal into heparinized capillary tubes. These tubes were then centrifuged for 5 minutes in an Adams Autocrit Centrifuge to separate red blood cells from plasma. Cholesterol efflux was determined by measuring the appearance of [^3H]-cholesterol in plasma by scintillation spectrometry. […]

[2] = tested on: cholesterol ester hydrolase; assay: Rate of hydrolysis of cholesteryl ester in cholesterol-laden J774 cells (cholesterol ester hydrolase activity); assay type: cell-based, murine

With “DTIADQEANRHGRSGKDPNYYRPPGLPDKY [SEQ ID NO:4, synthetic peptide, residues 74-103 of murine SAA2.1]” the “[3H]-cholesterol efflux as plasma radioactivity (dpm) (FIG. 1)” value [1] was “dramatically increased” and the “increase in cholesterol ester hydrolase activity” value ([2]; liposomes containing 0.5 μl synthetic peptide, cholesterol-laden J774 cells, Sandoz 58-035 present, 0 to 24 hours) was 3 fold.

For “GFFSFVHEAFQGAGDMWRAY [SEQ ID NO:1, synthetic peptide, residues 1-20 of murine SAA2.1]”, the “[3H]-cholesterol efflux as plasma radioactivity (dpm) (FIG. 1)” value [1] was “dramatically increased” and the “rate of hydrolysis of [14C]-labeled cholesteryl oleate versus protein-free liposomes” value ([2]; liposomes containing 0.5 μl synthetic peptide, J774 cells, Sandoz 58-035 present) was “no significant differences”.

B1: GFFSFVHEAFQGAGDMWRAYTDMKEANWKNSDKYFHARGNYDAAQRGPGGVWAAEKISD GREAFQEFFGRGHEDTIADQEANRHGRSGKDPNYYRPPGLPDKY (protein, listed as Mus musculis)
chain: GFFSFVHEAFQGAGDMWRAYTDMKEANWKNSDKYFHARGNYDAAQRGPGGVWAAEKISDGREAFQEFFGRGHEDTIADQEANRHGRSGKDPNYYRPPGLPDKY
notes: full length murine serum amyloid A isoform 2.1 purified from acute phase plasma
In the case of B1, the “cholesterol release from macrophages pretreated with protein liposomes and injected into un-inflamed mice” value ([1]; cholesterol-loaded macrophages pretreated with liposomes, injected intravenously) is reported as “recapitulated the major cholesterol releasing effect”, the “radiolabeled cholesterol exported in the plasma (FIG. 15)” value ([1]; non-liposome formulated, in 100 μl PBS, intravenous, 15 μg/mouse peptide or 75 μg/mouse full length protein) is reported as “exceeded the increase observed following administration of the D-27mer peptide” and the “cholesterol ester hydrolase activity in intact cholesterol-laden macrophages” value ([2]; lipoproteins or protein liposomes, tissue culture) is reported as “enhancement of cholesterol ester hydrolase activity”.
